Earlier results as cited in patent publication US4650664A (Dr. Karl Thomae GmbH, priority 1982, dated 1987).

Conditions: human

OCCN(CCO)c1nc(N2CCCCC2)c2nc(N(CCO)CCO)ncc2n1 [Mopidamol, 2,6-bis-(diethanolamino)-4-piperidinopyrimido[5,4-d]pyrimidine]
Excretion in the urine: only excreted in the urine to a very small extent
